Assay results taken from US8802597B2, “Herbicidal pyrimidines” (E I du Pont de Nemours and Company, priority 2003, dated 2014).
Where two headings read alike, the source gives them in different places.

Key:
Test in all cases: Test C pre/postemergence
Format in all cases: in vivo
[1] = tested on: johnsongrass (Sorghum halepense); conditions: Sorghum halepense; for pest or weed control at 125 g/ha: 125 g ai/ha; for pest or weed control at 250 g/ha: 250 g ai/ha
Summary of the method: (§1)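 Pre: seeds planted, sprayed same day. Post: 1- to 4-leaf plants (2–18 cm). Formulation: non-phytotoxic solvent + surfactant. Greenhouse 12–14 d; visual % control vs untreated, 0–100.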

[2] = tested on: kochia (Kochia scoparia); conditions: Bassia scoparia; for pest or weed control at 31 g/ha: 31 g ai/ha; for pest or weed control at 62 g/ha: 62 g ai/ha; for pest or weed control at 125 g/ha: 125 g ai/ha; for pest or weed control at 250 g/ha: 250 g ai/ha
Summary of the method: as §1

[3] = tested on: morningglory (Ipomoea coccinea); conditions: Ipomoea; for pest or weed control at 31 g/ha: 31 g ai/ha; for pest or weed control at 62 g/ha: 62 g ai/ha; for pest or weed control at 125 g/ha: 125 g ai/ha; for pest or weed control at 250 g/ha: 250 g ai/ha
Summary of the method: as §1

[4] = tested on: pigweed (Amaranthus retroflexus); conditions: Amaranthus retroflexus; for pest or weed control at 31 g/ha: 31 g ai/ha; for pest or weed control at 62 g/ha: 62 g ai/ha; for pest or weed control at 125 g/ha: 125 g ai/ha; for pest or weed control at 250 g/ha: 250 g ai/ha
Summary of the method: as §1

[5] = tested on: soybean (Glycine max); conditions: Glycine max; for plant injury at 31 g/ha: 31 g ai/ha; for plant injury at 62 g/ha: 62 g ai/ha; for plant injury at 125 g/ha: 125 g ai/ha; for plant injury at 250 g/ha: 250 g ai/ha
Summary of the method: as §1

[6] = tested on: woolly cupgrass (Eriochloa villosa); conditions: Eriochloa villosa; for pest or weed control at 31 g/ha: 31 g ai/ha; for pest or weed control at 62 g/ha: 62 g ai/ha; for pest or weed control at 125 g/ha: 125 g ai/ha; for pest or weed control at 250 g/ha: 250 g ai/ha
Summary of the method: as §1

[7] = pre-emergence, Preemergence, scale 0 to 100, read-out: Plant response rating, Johnsongrass
[8] = post-emergence, Postemergence, scale 0 to 100 (0 no effect, 100 complete control), read-out: Kochia plant response rating
[9] = pre-emergence, Preemergence, scale 0 to 100, 0 no effect, 100 complete control, read-out: Plant response rating, Kochia
[10] = pre-emergence, Preemergence, scale 0 to 100, read-out: Plant response rating, Kochia
[11] = post-emergence, Postemergence, scale 0 to 100 (0 no effect, 100 complete control), read-out: Morningglory plant response rating
[12] = pre-emergence, Preemergence, scale 0 to 100, 0 no effect, 100 complete control, read-out: Plant response rating, Morningglory
[13] = pre-emergence, Preemergence, scale 0 to 100, read-out: Plant response rating, Morningglory
[14] = post-emergence, Postemergence, scale 0 to 100 (0 no effect, 100 complete control), read-out: Pigweed plant response rating
[15] = pre-emergence, Preemergence, scale 0 to 100, 0 no effect, 100 complete control, read-out: Plant response rating, Pigweed
[16] = pre-emergence, Preemergence, scale 0 to 100, read-out: Plant response rating, Pigweed
[17] = post-emergence, Postemergence, scale 0 to 100 (0 no effect, 100 complete control), read-out: Soybean plant response rating
[18] = pre-emergence, Preemergence, scale 0 to 100, 0 no effect, 100 complete control, read-out: Plant response rating, Soybean
[19] = pre-emergence, Preemergence, scale 0 to 100, read-out: Plant response rating, Soybean
[20] = post-emergence, Postemergence, scale 0 to 100 (0 no effect, 100 complete control), read-out: Cupgrass, Woolly plant response rating
[21] = pre-emergence, Preemergence, scale 0 to 100, 0 no effect, 100 complete control, read-out: Plant response rating, Cupgrass, Woolly
[22] = pre-emergence, Preemergence, scale 0 to 100, read-out: Plant response rating, Cupgrass, Woolly

Structure (SMILES): COC(=O)c1nc(C2CC2)nc(N)c1Cl [Compound 9, methyl 6-amino-5-chloro-2-cyclopropyl-4-pyrimidinecarboxylate]
- pest or weed control at 125 g/ha ([1]; post-emergence, Postemergence, scale 0 to 100 (0 no effect, 100 complete control), read-out: Johnsongrass plant response rating): 80%
- pest or weed control at 250 g/ha ([1]; post-emergence, Postemergence, scale 0 to 100, read-out: Plant response rating, Johnsongrass): 85%
- pest or weed control at 31 g/ha ([1]; pre-emergence, Preemergence, 31 g ai/ha, scale 0 to 100, 0 no effect, 100 complete control, read-out: Plant response rating, Johnsongrass): 15%
- pest or weed control at 62 g/ha ([1]; pre-emergence, Preemergence, 62 g ai/ha, scale 0 to 100, 0 no effect, 100 complete control, read-out: Plant response rating, Johnsongrass): 45%
- pest or weed control at 125 g/ha [1, 7]: 65%
- pest or weed control at 250 g/ha [1, 7]: 90%
- pest or weed control at 31 g/ha ([2]; post-emergence, Postemergence, read-out: Plant response rating (scale of 0 to 100), Kochia): 95%
- pest or weed control at 62 g/ha [2, 8]: 100%
- pest or weed control at 125 g/ha [2, 8]: 100%
- pest or weed control at 250 g/ha ([2]; post-emergence, Postemergence, scale 0 to 100, read-out: Plant response rating, Kochia): 100%
- pest or weed control at 31 g/ha [2, 9]: 95%
- pest or weed control at 62 g/ha [2, 9]: 95%
- pest or weed control at 125 g/ha [2, 10]: 100%
- pest or weed control at 250 g/ha [2, 10]: 100%
- pest or weed control at 31 g/ha ([3]; post-emergence, Postemergence, read-out: Plant response rating (scale of 0 to 100), Morningglory): 90%
- pest or weed control at 62 g/ha [3, 11]: 95%
- pest or weed control at 125 g/ha [3, 11]: 100%
- pest or weed control at 250 g/ha ([3]; post-emergence, Postemergence, scale 0 to 100, read-out: Plant response rating, Morningglory): 100%
- pest or weed control at 31 g/ha [3, 12]: 100%
- pest or weed control at 62 g/ha [3, 12]: 100%
- pest or weed control at 125 g/ha [3, 13]: 100%
- pest or weed control at 250 g/ha [3, 13]: 100%
- pest or weed control at 31 g/ha ([4]; post-emergence, Postemergence, read-out: Plant response rating (scale of 0 to 100), Pigweed): 55%
- pest or weed control at 62 g/ha [4, 14]: 70%
- pest or weed control at 125 g/ha [4, 14]: 100%
- pest or weed control at 250 g/ha ([4]; post-emergence, Postemergence, scale 0 to 100, read-out: Plant response rating, Pigweed): 100%
- pest or weed control at 31 g/ha [4, 15]: 95%
- pest or weed control at 62 g/ha [4, 15]: 95%
- pest or weed control at 125 g/ha [4, 16]: 100%
- pest or weed control at 250 g/ha [4, 16]: 100%
- plant injury at 31 g/ha ([5]; post-emergence, Postemergence, read-out: Plant response rating (scale of 0 to 100), Soybean): 95%
- plant injury at 62 g/ha [5, 17]: 100%
- plant injury at 125 g/ha [5, 17]: 100%
- plant injury at 250 g/ha ([5]; post-emergence, Postemergence, scale 0 to 100, read-out: Plant response rating, Soybean): 100%
- plant injury at 31 g/ha [5, 18]: 100%
- plant injury at 62 g/ha [5, 18]: 100%
- plant injury at 125 g/ha [5, 19]: 100%
- plant injury at 250 g/ha [5, 19]: 100%
- pest or weed control at 31 g/ha ([6]; post-emergence, Postemergence, read-out: Plant response rating (scale of 0 to 100), Cupgrass, Woolly): 40%
- pest or weed control at 62 g/ha [6, 20]: 60%
- pest or weed control at 125 g/ha [6, 20]: 70%
- pest or weed control at 250 g/ha ([6]; post-emergence, Postemergence, scale 0 to 100, read-out: Plant response rating, Cupgrass, Woolly): 85%
- pest or weed control at 31 g/ha [6, 21]: 0%
- pest or weed control at 62 g/ha [6, 21]: 90%
- pest or weed control at 125 g/ha [6, 22]: 95%
- pest or weed control at 250 g/ha [6, 22]: 100%
